Test results taken from patent publication EP4741383A1, “COMPOUND AND USE THEREOF AS ANTI-CANCER DRUG” (Tyligand Bioscience (Shanghai) Limited, priority 2023, dated 2025).
pIC50: −log10 of the molar value.

Assays:
[1] = biological target: T1, SHP2 enzyme (catalytic domain, amino acid sequence 224-528) (Homo sapiens, UniProt Q06124); assay: SHP2 enzyme inhibition assay (DiFMUP substrate, fluorescence); assay type: biochemical; conditions: for pIC50: SHP2 catalytic domain, DiFMUP substrate, 30 min pre-incubation, read-out: S HP2 I C50; for SHP2 IC50 times lower than control compound 11a-1: relative to 11a-1, IC50 = 0.108 µM
T1 construct: purchased GenScript
T1 sequence (Q06124 224-528): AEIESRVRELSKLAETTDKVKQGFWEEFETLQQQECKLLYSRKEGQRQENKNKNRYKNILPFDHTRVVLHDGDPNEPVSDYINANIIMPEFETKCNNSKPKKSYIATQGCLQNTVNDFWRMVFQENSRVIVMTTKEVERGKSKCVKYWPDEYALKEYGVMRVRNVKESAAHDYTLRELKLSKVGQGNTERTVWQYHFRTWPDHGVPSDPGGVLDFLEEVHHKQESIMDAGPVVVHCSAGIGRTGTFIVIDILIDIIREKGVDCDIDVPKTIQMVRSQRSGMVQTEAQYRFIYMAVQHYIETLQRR
Description: This experiment evaluates the inhibitory effect of the test compounds on SHP2 enzyme activity by detecting the reaction between the human recombinant protein SHP2 enzyme and the substrate.
The stock solutions of the reaction buffer components were thawed and mixed homogeneously at room temperature, to prepare the reaction buffer (55 mM HEPES pH = 7.2 (Sigma, Cat. No. #PHR1428), 100 mM NaCl (Beyotime, Cat. No. #ST374, 5 M solution), 0.5 mM EDTA (Beyotime, Cat. No. #ST066), 1 mM DL-Dithiothreitol (DTT) (Sigma, Cat. No. #D9779), 0.002% BSA (Solarbio, Cat. No. #A8010), 0.001% Brij35 (Brij® L23 solution (Brij35) (Sigma, Cat. No. #B4184)). The SHP2 enzyme (catalytic domain, amino acid sequence 224-528, expressed and purified by GenScript) was thawed slowly on ice. 1 µL of this solution (1.37 mg/mL) was added to 386 µL of the reaction buffer to dilute it to 100 nM. Then, 120 µL of the 100 nM SHP2 enzyme solution was added to 2880 µL of reaction buffer to prepare a 4 nM SHP2 enzyme working solution. The test compounds and the specific inhibitor of SHP2 (11a-1, used as a positive control, Zeng, L. et al., J. Med. Chem. 2014, 57, 6594-6609) were prepared as 10 mM DMSO solutions. 10 µL of the 10 mM compound solution was mixed with 20 µL of DMSO solution, and then serially diluted 3-fold, resulting in 10 concentrations. 1 µL of the serially diluted solution was mixed with 99 µL of reaction buffer to obtain a 10-fold diluted compound working solution.
A 96-well black half-area microplate (Greiner, catalog #675076) was used. 25 µL of 4 nM SHP2 enzyme working solution and 5 µL of 10x compound working solution were added to each well and incubated at room temperature for 30 minutes. 15 µL of DiFMUP substrate (Thermo Fisher Scientific, catalog #D6567) was added to 2985 µL of reaction buffer to prepare a 50 µM substrate working solution. After incubation of the compounds and SHP2 enzyme, 20 µL of the 50 µM substrate working solution was added to each well and incubated at room temperature for 5 minutes. The plate was then read on a multi-mode microplate reader (BioTek, Synergy H1) at 340 nm/450 nm fluorescence.
Data were analyzed using GraphPad Prism 9.0 software. A non-linear S-curve regression dose-response-inhibition equation was used to fit the data and generate the dose-response curve, from which the IC50 value was calculated. [formula]

KYSE520 = assay: CellTiter-Glo cell proliferation inhibition, KYSE520; assay type: cell-based, human; conditions: Homo sapiens, KYSE-520; KYSE520 cells, 120 hours, CellTiter-Glo
Excerpt: In this study, the CellTiter-Glo® Luminescent Cell Viability Assay kit from Promega was used to evaluate the inhibitory effects of the disclosed compounds on the proliferation of cell lines KYSE520 (a human esophageal squamous cell carcinoma cell line dependent on SHP2 for growth), MeWo (a human malignant melanoma cell line), and MV4-11 (an RTK-mutant human acute monocytic leukemia cell line).
KYSE520 cells (Nanjing Kebaio Biotechnology Co., Ltd., Catalog #CBP60658) were thawed by rapidly shaking the cryovial in a 37 °C water bath to thaw within 1 minute. The thawed cell suspension was mixed homogeneously with RPMI 1640 medium (HyClone, Catalog #SH30027.01) containing 10% FBS (ExCell, Catalog #FND500), centrifuged at 1000 rpm for 5 minutes, and the supernatant was discarded. The cell pellet was resuspended in 5 mL of complete culture medium (RPMI 1640 medium containing 10% FBS) and placed in a cell culture flask with 25 cm^2 of bottom area, then cultured in a cell culture incubator at 37 °C, 95% humidity, and 5% CO2. Cell passaging was performed when the cell confluence reached approximately 80%. During cell passaging, the old culture medium was discarded, the cells were washed once with DPBS (Thermo Fisher, Catalog #14190-144), and 1 mL of trypsin (Thermo Fisher, Catalog #25200072) was added to digest the cells. When the cells dispersed into single cells and detached from the bottom of the culture flask, 3 mL of fresh complete culture medium was added to stop the digestion. After gently pipetting the cell suspension, 1/5 of the cell suspension was retained, 5 mL of fresh complete culture medium was added, and after mixing, the cells were placed in a cell culture flask for further culture. Cell plating was performed when the cell confluence again reached approximately 80%. During cell plating, following the cell passaging method, 1/5 of the cell suspension was retained for continued culture, and the remaining 4/5 of the cell suspension was placed in a 15 mL centrifuge tube. Cell viability was determined using the trypan blue exclusion method to ensure that cell viability was above 90%. A cell suspension with a density of 2.22 × 10^4 cells/mL was prepared using complete culture medium, and 135 µL of the cell suspension was added to a 96-well transparent flat-bottom black-walled cell culture plate (Greiner, Catalog #655090), resulting in a cell density of 3000 viable cells per well. A control group containing only complete culture medium without cells and compounds (i.e., culture medium control) and a control group containing cells but no compound (i.e., cell control) were set up. The cell plates were incubated overnight in a cell culture incubator. First, a 10 mM stock solution of the compound (Example compound and positive control compound 11a-1) in DMSO (Damas-beta, catalog #75927R) was serially diluted 3-fold to the 9th concentration, and a 10th concentration containing only DMSO (without compound) was also prepared as a control. Then, the DMSO solutions containing different concentrations of the compound were diluted 100-fold with complete culture medium, resulting in a 1% DMSO concentration in each solution. Finally, 15 µL of each solution was added to the corresponding wells of the cell culture plate, resulting in a starting compound concentration of 10 µM, with a 3-fold dilution between adjacent concentrations, and a final DMSO concentration of 0.1% in the cell culture plate. The cell plates were then incubated in the cell culture incubator for another 120 hours.
For endpoint detection, CellTiter-Glo reagent (Promega, catalog number #G7573, CellTiter-Glo® Luminescent Cell Viability Assay Kit) was melt and each cell plate was moved to room temperature for equilibration for 30 minutes. 75 µL (KYSE520 cells) or 50 µL (MeWo cells and MV 4-11 cells) of CellTiter-Glo was added to each well of the corresponding cell plate. The plates were shaken on a track-mounted shaker for 2 minutes to fully lyse the cells. […]

| Compound | pIC50 [1] | SHP2 IC50 times lower than control compound 11a-1 [1] | IC50 (KYSE520) [µM] |
| --- | --- | --- | --- |
| CC1(n2c(-c3ccc(NC(=O)C(=O)Nc4ccc(N5CC[C@H](CO)C5)cc4)cc3)cc3cc(F)c(-c4nnn[nH]4)cc32)CCC1 [Example 13] | 7.18 | – | 0.182 |
| O=C(Nc1ccc(-c2cc3cc(F)c(-c4nnn[nH]4)cc3n2C2CCC2)cc1)C(=O)Nc1ccc(N2CCC(F)(CO)C2)cc1 (stereo not drawn) [Example 17] | 6.92 | – | 0.185 |
| CC(C)(O)CC1CCN(c2ccc(NC(=O)C(=O)Nc3ccc(-c4cc5cc(F)c(-c6nnn[nH]6)cc5n4C4CCC4)cc3)cc2)CC1 [Example 27] | 6.95 | – | 0.17 |
| C[C@@H](O)C1CCN(c2ccc(NC(=O)C(=O)Nc3ccc(-c4cc5cc(F)c(-c6nnn[nH]6)cc5n4C4(C)CCC4)cc3)cc2)CC1 [Example 30] | 7.07 | – | 0.192 |
| CCC(O)C1CCN(c2ccc(NC(=O)C(=O)Nc3ccc(-c4cc5cc(F)c(-c6nnn[nH]6)cc5n4C4CCC4)cc3)cc2)CC1 (stereo not drawn) [Example 31] | 7.06 | – | 0.116 |
| O=C(Nc1ccc(-c2cc3cc(F)c(-c4nnn[nH]4)cc3n2C2CCC2)cc1)C(=O)Nc1ccc(N2CCC(C(O)C(F)(F)F)CC2)cc1 (stereo not drawn) [Example 32] | 7.21 | – | 0.182 |
| CC(C)(O)C1CCN(c2ccc(NC(=O)C(=O)Nc3ccc(-c4cc5cc(F)c(-c6nnn[nH]6)cc5n4Cc4ccccc4)cc3)cc2)CC1 [Example 36] | 7.28 | – | 0.12 |
| CC1(n2c(-c3ccc(NC(=O)C(=O)Nc4ccc(N5CC6(CCOCC6)C5)cc4)cc3)cc3cc(F)c(-c4nnn[nH]4)cc32)CCC1 [Example 58] | 7.51 | 3-4 times | 0.125 |
| CC1(n2c(-c3ccc(NC(=O)C(=O)Nc4ccc(N5CCC6(CCCOC6)CC5)cc4)cc3)cc3cc(F)c(-c4nnn[nH]4)cc32)CCC1 [Example 75] | 7.47 | 3-4 times | 0.103 |
| CC1(n2c(-c3ccc(NC(=O)C(=O)Nc4ccc(N5CC6(CCC(O)CC6)C5)cc4)cc3)cc3cc(F)c(-c4nnn[nH]4)cc32)CCC1 [Example 82] | 7.52 | 3-4 times | 0.097 |
| CC1(n2c(-c3ccc(NC(=O)C(=O)Nc4ccc(N5CC6(CCC(CO)CC6)C5)cc4)cc3)cc3cc(F)c(-c4nnn[nH]4)cc32)CCC1 [Example 86] | 7.19 | – | 0.158 |
| CC(C)(O)C1CCC2(CC1)CN(c1ccc(NC(=O)C(=O)Nc3ccc(-c4cc5cc(F)c(-c6nnn[nH]6)cc5n4C4CCC4)cc3)cc1)C2 [Example 87] | 7.05 | – | – |
| CC(C)(O)C1CCC2(CC1)CN(c1ccc(NC(=O)C(=O)Nc3ccc(-c4cc5cc(F)c(-c6nnn[nH]6)cc5n4C4(C)CCC4)cc3)cc1)C2 [Example 88] | 6.83 | – | – |

The next lines start with results.

| pIC50 [1] | SHP2 IC50 times lower than control compound 11a-1 [1] | Compound | IC50 (KYSE520) [µM] |
| --- | --- | --- | --- |
| 6.86 | – | CC1(n2c(-c3ccc(NC(=O)C(=O)Nc4ccc(N5CCC6(CC(O)C6)C5)cc4)cc3)cc3cc(F)c(-c4nnn[nH]4)cc32)CCC1 (stereo not drawn) [Example 90] | – |
| 7.03 | – | CC1(O)CC2(CCN(c3ccc(NC(=O)C(=O)Nc4ccc(-c5cc6cc(F)c(-c7nnn[nH]7)cc6n5C5CCC5)cc4)cc3)C2)C1 (stereo not drawn) [Example 91] | 0.101 |
| 7.25 | – | CC1(O)CCC2(CCN(c3ccc(NC(=O)C(=O)Nc4ccc(-c5cc6cc(F)c(-c7nnn[nH]7)cc6n5C5CCC5)cc4)cc3)C2)C1 (stereo not drawn) [Example 93] | – |
| 7.08 | – | CC(C)(O)C1CC2(CCN(c3ccc(NC(=O)C(=O)Nc4ccc(-c5cc6cc(F)c(-c7nnn[nH]7)cc6n5C5CCC5)cc4)cc3)CC2)C1 [Example 98] | 0.195 |
| 7.11 | – | CC(C)(O)C1CC2(CCN(c3ccc(NC(=O)C(=O)Nc4ccc(-c5cc6cc(F)c(-c7nnn[nH]7)cc6n5C5(C)CCC5)cc4)cc3)CC2)C1 [Example 99] | 0.17 |
| 7.31 | – | CC1(n2c(-c3ccc(NC(=O)C(=O)Nc4ccc(N5CCC6(CCC(O)C6)CC5)cc4)cc3)cc3cc(F)c(-c4nnn[nH]4)cc32)CC1 (stereo not drawn) [Example 102] | 0.116 |
| 7.15 | – | CC1(O)CCC2(CCN(c3ccc(NC(=O)C(=O)Nc4ccc(-c5cc6cc(F)c(-c7nnn[nH]7)cc6n5C5CCC5)cc4)cc3)CC2)C1 (stereo not drawn) [Example 104] | 0.125 |
| 7.07 | – | CC1(O)CCC2(CCN(c3ccc(NC(=O)C(=O)Nc4ccc(-c5cc6cc(F)c(-c7nnn[nH]7)cc6n5C5(C)CCC5)cc4)cc3)CC2)C1 (stereo not drawn) [Example 105] | – |
| 6.98 | – | O=C(Nc1ccc(-c2cc3cc(F)c(-c4nnn[nH]4)cc3n2C2CCC2)cc1)C(=O)Nc1ccc(N2CCC3(CCC(CO)CC3)CC2)cc1 [Example 112] | – |
| < 5.00 | – | O=C(Nc1ccc(-c2ccsc2)cc1)C(=O)Nc1ccc(-c2cc3ccc(-c4cnn[nH]4)cc3n2C2CCC2)cc1 [Example 121] | – |
| 7.64 | – | O=C(Nc1ccc(-c2cc3cc(F)c(-c4nnn[nH]4)c(F)c3n2C2CCC2)cc1)C(=O)Nc1ccc(N2CCC3(CCOC3)CC2)cc1 [Example 126] | – |
| 6.84 | – | N#Cc1nnc(-c2cc3c(cc2F)cc(-c2ccc(NC(=O)C(=O)Nc4ccc(N5CCC6(CCOC6)CC5)cc4)cc2)n3C2CCC2)[nH]1 [Example 127] | – |
| < 5.00 | – | Cc1nnc(-c2cc3c(cc2F)cc(-c2ccc(NC(=O)C(=O)Nc4ccc(N5CCC6(CCOC6)CC5)cc4)cc2)n3C2CCC2)[nH]1 [Example 128] | – |
